# Laboratory results published in publication PMC12737277, “Ecotoxicity of Nitrated Monoaromatic Hydrocarbons in Aquatic Systems: Emerging Risks from Atmospheric Deposition of Biomass Burning and Anthropogenic Aerosols” (Toxics, 2025).
# Read-outs that look alike come from different tables or passages of the source.
# Tests used:
# Oct1 = target: T1, Oct1 (Danio rerio, UniProt A0A8N1Z2B5); assay: inhibition of ASP+ uptake in transfected cells, fluorescence; assay type: cell-based; conditions: 0.5 µM ASP+, mock cells subtracted
# T1 construct: gene slc22a2; full-length transporter stably expressed in Flp-In-293 cells (Flp-In-293-drOct1)
# T1 sequence (A0A8N1Z2B5 1-562): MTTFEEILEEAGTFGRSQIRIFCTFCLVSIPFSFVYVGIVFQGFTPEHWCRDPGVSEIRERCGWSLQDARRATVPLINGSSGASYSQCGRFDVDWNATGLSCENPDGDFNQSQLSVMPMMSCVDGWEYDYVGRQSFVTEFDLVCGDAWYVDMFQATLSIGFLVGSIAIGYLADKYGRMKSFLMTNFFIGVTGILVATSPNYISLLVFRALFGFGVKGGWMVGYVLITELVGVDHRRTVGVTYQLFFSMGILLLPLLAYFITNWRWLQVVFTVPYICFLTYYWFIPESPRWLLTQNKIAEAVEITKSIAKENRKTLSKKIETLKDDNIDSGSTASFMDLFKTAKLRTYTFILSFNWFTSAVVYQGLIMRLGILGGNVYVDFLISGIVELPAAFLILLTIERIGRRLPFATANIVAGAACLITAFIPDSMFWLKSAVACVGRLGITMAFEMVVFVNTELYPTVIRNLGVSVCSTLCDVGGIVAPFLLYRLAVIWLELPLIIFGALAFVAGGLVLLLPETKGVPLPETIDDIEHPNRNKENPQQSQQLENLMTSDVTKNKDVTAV
# Oatp1d1 = target: T2, Oatp1d1 (Danio rerio, UniProt A0A8M9PU70); assay: inhibition of Lucifer yellow uptake in transfected cells, fluorescence; assay type: cell-based
# T2 construct: gene slco1d1; full-length transporter stably expressed in Flp-In-293 cells (Flp-In-293-drOatp1d1)
# T2 sequence (A0A8M9PU70 1-689): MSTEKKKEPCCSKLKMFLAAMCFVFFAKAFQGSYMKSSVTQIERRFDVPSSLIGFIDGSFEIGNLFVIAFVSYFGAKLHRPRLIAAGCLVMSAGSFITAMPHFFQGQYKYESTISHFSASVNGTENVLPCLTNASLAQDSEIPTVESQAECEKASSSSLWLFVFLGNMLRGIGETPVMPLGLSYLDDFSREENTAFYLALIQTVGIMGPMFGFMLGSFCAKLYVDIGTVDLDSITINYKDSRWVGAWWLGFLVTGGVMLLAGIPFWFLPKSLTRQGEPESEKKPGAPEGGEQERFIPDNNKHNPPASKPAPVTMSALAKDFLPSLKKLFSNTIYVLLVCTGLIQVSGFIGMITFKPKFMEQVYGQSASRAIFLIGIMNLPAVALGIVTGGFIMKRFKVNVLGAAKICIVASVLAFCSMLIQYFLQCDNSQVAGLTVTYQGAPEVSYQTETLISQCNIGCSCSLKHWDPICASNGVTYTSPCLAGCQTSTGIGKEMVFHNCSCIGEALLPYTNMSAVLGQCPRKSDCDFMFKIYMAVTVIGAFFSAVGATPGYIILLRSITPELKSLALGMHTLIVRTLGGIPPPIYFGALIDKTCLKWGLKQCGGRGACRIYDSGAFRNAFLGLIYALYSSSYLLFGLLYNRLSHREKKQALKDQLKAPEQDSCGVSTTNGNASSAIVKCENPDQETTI
# [1] = 50 µM Lucifer yellow, mock cells subtracted
SMILES,IC50 (Oct1),IC50 (Oatp1d1; [1]),IC50 (Oct1; read-out: IC50 (converted)),IC50 (Oatp1d1; read-out: IC50 (converted))
COc1cc([N+](=O)[O-])cc(OC)c1O [4NS],All tested NMAHs interfered with ASP+ uptake via Oct1,all compounds except 4NP showed interaction with LY uptake,–,–
O=C(O)c1cccc([N+](=O)[O-])c1O [3NSA],–,all compounds except 4NP showed interaction with LY uptake,496 µM,–
O=[N+]([O-])c1ccc(O)cc1 [4NP],–,–,–,> 719 µM
O=C(O)c1cc([N+](=O)[O-])ccc1O [5NSA],–,–,529 µM,14.2 µM
O=[N+]([O-])c1ccc(O)c(O)c1 [4NC],"particularly 3M5NC, 3M4NC, and 4NC, exhibited the strongest interactions with Oct1",all compounds except 4NP showed interaction with LY uptake,–,–
Cc1c([N+](=O)[O-])ccc(O)c1O [3M4NC],"particularly 3M5NC, 3M4NC, and 4NC, exhibited the strongest interactions with Oct1",all compounds except 4NP showed interaction with LY uptake,–,–
Cc1cc([N+](=O)[O-])cc(O)c1O [3M5NC],"particularly 3M5NC, 3M4NC, and 4NC, exhibited the strongest interactions with Oct1",all compounds except 4NP showed interaction with LY uptake,–,–
